Like-named read-outs stand apart in the source and are kept apart here.

The values below come from patent publication US20250092065A1, “2-(INDAZOL-5-YL)-6-(PIPERIDIN-4-YL)-1,7-NAPHTHYRIDINE DERIVATIVES AND RELATED COMPOUNDS AS MODULATORS FOR SPLICING NUCLEIC ACIDS AND FOR THE TREATMENT OF PROLIFERATIVE DISEASES” (REMIX THERAPEUTICS INC., priority 2022, published 2025).

Data set [1] relates to K562 cells. Kind of data set: Cell Titer Glo 2.0 cell viability (toxicity) assay, K562. The note with it: 500 cells/well, 72 hours.
Data set [2] relates to MYB. Kind of data set: HiBiT protein abundance assay, MYB (K562 HiBiT knock-in). It is filed as cell-based, human. The note with it: HiBiT knock-in K562 cells, 24 hours, top dose 10 μM. The protocol:
(§1) Compounds described herein were used to screen for effects on quantitative protein abundance using a HiBit assay system (Promega). Quantitative protein abundance was determined by measuring the protein levels of HiBit-tagged protein targets expressed in cell culture via luminescence using the Nano-Glo HiBiT Lytic Detection System, which uses a split complementation assay format to reconstitute NanoBiT enzyme to generate a luminescent signal. A protein abundance assay was developed such that endogenous protein targets could be modified with the HiBiT peptide tag and their abundance could be assessed after compound treatment. Briefly, K562 cell lines containing a HiBiT-modification were treated with various compounds described herein (e.g., compounds of Formulas (I), or (II)). After treatment for 24 hours, the protein abundance of a specific target was determined by measuring luminescence.
(§2) Cells were maintained in IMIDM with 10% FBS. Before the assay, cells were diluted with […] growth media (IMIDM+[…] media) and were seeded in a 384-well plate at a density of 10000 cells/well (for each cell line listed in Table 6). Each compound was prepared as a 10-point 3-fold serial dilution in DMSO with the top dose at a final concentration of 10 μM in the well. Unmodified K562 cells were added at the previously specified density with DMSO to serve as an assay baseline and positive control (PC) and DMSO only with the respective modified cell lines was added to the negative control (NC) columns. Final DMSO concentration was kept at or below 0.25%. Treated cell plates were placed in an incubator at 37° C. with […] for 24 hours. After 24 hours, 25 μL of Complete HiBit Lytic reagent was added to each well at room temperature (e.g. one plate requiring 10 mL Lytic Buffer, 100 μL LgBiT Protein, 200 μL Lytic Substrate), shaken for 5 minutes at 600 RPM, then left to sit for 10 minutes for signal to stabilize before reading on a Spark Cyto plate reader (Tecan) with a 500 ms measurement time.
(§3) To determine compound effects on protein abundance of each target in Table 6, the percent response for each respective cell line was calculated at each compound concentration as follows:
(§4) % response=100*(S−PC)(NC−PC)
(§5) For the normalized response at each concentration, a four-parameter logistical regression was fit to the data and the response was interpolated at the […] to determine a concentration for protein abundance at 50% (IC50) the untreated control.

For data set [3], the system named is MYB mRNA. Briefly: RT-qPCR splicing assay, MYB mRNA canonical (CJ) and alternative (AJ) junction. The conditions noted are these: Homo sapiens; for AC50: MYB alternative junction mRNA, read-out: MYB AJ (increase in AJ mRNA, AC50). Format: cell-based, human. In short, it runs like this:
(§6)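 Junction-specific RT-qPCR read-out: CJ and AJ isoform levels, housekeeper-normalized (GAPDH/GUSB/PPIA), ΔΔCt vs DMSO, converted to RQ then % response. Cells: A673 (DMEM/10% FBS, adhered 24 h) or K562 (IMDM/10% FBS). Compound 11-pt 3-fold, top 10 uM, 24 h, 37 °C.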

Data set [4] concerns HTT mRNA. Briefly: RT-qPCR splicing assay, HTT mRNA canonical (CJ) and alternative (AJ) junction. Format: cell-based, human. The note with it: Homo sapiens; for AC50: HTT alternative junction mRNA, read-out: HTT AJ (increase in AJ mRNA, AC50). In short, it runs like this: as §6
Data set [5] concerns HTT. Kind of data set: HiBiT protein abundance assay, HTT (K562 HiBiT knock-in). It is filed as cell-based, human. The conditions noted are these: HiBiT knock-in K562 cells, 24 hours, top dose 10 μM. The protocol:
as §1, §2, §3, §4, §5

The subject of data set [6] is Target C. Briefly: HiBiT protein abundance assay, Target C (K562 HiBiT knock-in). Format: cell-based, human. The note with it: HiBiT knock-in K562 cells, 24 hours, top dose 10 μM. The protocol: as §2, §3, §4, §5
Data set [7] has as its system SMN2 mRNA. Briefly: RT-qPCR splicing assay, SMN2 mRNA. The conditions noted are these: Homo sapiens, canonical junction qPCR panel, Table 4; read-out: SMN2 IC50 (decrease in CJ mRNA levels). Format: cell-based, human. In short, it runs like this: as §6
[8] abbreviates: MYB canonical junction mRNA, RT-qPCR, read-out: MYB CJ (decrease in CJ mRNA levels, IC50).
The mark [9] stands for this setting: canonical junction qPCR panel, Table 4, read-out: MYB IC50 (decrease in CJ mRNA levels).
The mark [10] stands for this setting: HTT canonical junction mRNA, RT-qPCR, read-out: HTT CJ (decrease in CJ mRNA levels, IC50).
The mark [11] stands for this setting: canonical junction qPCR panel, Table 4, read-out: HTT IC50 (decrease in CJ mRNA levels).

Consider `CCC1CN(c2ccc3nc(-c4cc5cn(C)nc5cc4O)ccc3n2)CCN1` (centres unmarked) [Compound 119], for which the “Effect of Exemplary Compounds on Cell Viability, K562” value (from here on “Effect of Exemplary Compounds”) in data set [1] is reported as “B (B represents 100-1000 nM)”. For the same compound, the 50% inhibitory concentration (IC50) in data set [2], in data set [3] (setting [8]), in data set [3] (setting [9]), in data set [4] (setting [10]), in data set [4] (setting [11]) and in data set [5] was 0.1 to 1 µM throughout. Also, the IC50 in data set [6] is 0.1 to 1 µM; in data set [7], less than 0.1 µM. The results for the half-maximal activity concentration (AC50) in data set [3] (RT-qPCR) and in data set [4] (RT-qPCR) were 0.1 to 1 µM and 1 to 10 µM, respectively.
`Cn1cc2cc(-c3ccc4nc(N5CCNC(C)(C)C5)ccc4n3)c(O)cc2n1` [Compound 120]: the “Effect of Exemplary Compounds” value in data set [1] is on record as “B (B represents 100-1000 nM)”. For the same compound, the concentration for half-maximal inhibition (IC50) fell in the range of 1 to 10 µM in data set [2]; 0.1 to 1 µM in data set [3] (setting [8]); 0.1 to 1 µM in data set [3] (setting [9]); 1 to 10 µM in data set [4] (setting [10]); 1 to 10 µM in data set [4] (setting [11]); 1 to 10 µM in data set [5]. In addition, the half-maximal inhibitory concentration (IC50) is 1 to 10 µM in data set [6] and less than 0.1 µM in data set [7]. Moreover, the concentration at half-maximal activity (AC50) is 0.1 to 1 µM in data set [3] (RT-qPCR) and 1 to 10 µM in data set [4] (RT-qPCR).
As for `Cn1cc2cc(-c3ccc4nc(N5CCNC6(CC6)C5)ccc4n3)c(O)cc2n1` [Compound 121], the “Effect of Exemplary Compounds” value in data set [1] is given as “C (C represents 1000-9999 nM)”. Also, the 50% inhibitory concentration (IC50) in data set [2] lay within 1 to 10 µM; in data set [3] (setting [8]), 0.1 to 1 µM; in data set [3] (setting [9]), 0.1 to 1 µM; in data set [4] (setting [10]), 1 to 10 µM; in data set [4] (setting [11]) it was 1 to 10 µM; in data set [5], 1 to 10 µM. The IC50 in data set [6] and in data set [7] was 1 to 10 µM in each case. Also, the AC50 in data set [3] (RT-qPCR) is 0.1 to 1 µM; in data set [4] (RT-qPCR), 1 to 10 µM.
For `Cn1cc2cc(-c3ccc4nc(N5CC6(CNC6)C5)ccc4n3)c(O)cc2n1` [Compound 124], in data set [1], the “Effect of Exemplary Compounds” value is reported as “B (B represents 100-1000 nM)”. Further, the IC50 was 0.1 to 1 µM in data set [2]; 0.1 to 1 µM in data set [3] (setting [8]); 0.1 to 1 µM in data set [3] (setting [9]); less than 0.1 µM in data set [4] (setting [10]); less than 0.1 µM in data set [4] (setting [11]); less than 0.1 µM in data set [5]. Besides, the IC50 in data set [6] and in data set [7] was less than 0.1 µM in each case. Also, the AC50 in data set [3] (RT-qPCR) and in data set [4] (RT-qPCR) was 0.1 to 1 µM each time.
For the compound `Cn1cc2cc(-c3ccc4nc(N5CCC(N6CCCC6)C5)ccc4n3)c(O)cc2n1` (centres unmarked) [Compound 125], the “Effect of Exemplary Compounds” value in data set [1] is on record as “B (B represents 100-1000 nM)”. Further, the IC50 in data set [2], in data set [3] (setting [8]), in data set [3] (setting [9]), in data set [4] (setting [10]), in data set [4] (setting [11]) and in data set [5] was 0.1 to 1 µM throughout. Besides, the figures for the IC50 in data set [6] and in data set [7] were 0.1 to 1 µM and less than 0.1 µM, respectively. Further, the AC50 in data set [3] (RT-qPCR) was less than 0.1 µM; in data set [4] (RT-qPCR), 0.1 to 1 µM.
Turning to `Cn1cc2cc(-c3ccc4nc(N5CCC(NC(C)(C)C)C5)ccc4n3)c(O)cc2n1` (centres unmarked) [Compound 127], the “Effect of Exemplary Compounds” value in data set [1] is “B (B represents 100-1000 nM)”. Besides, the IC50 in data set [2], in data set [3] (setting [8]), in data set [3] (setting [9]), in data set [4] (setting [10]), in data set [4] (setting [11]) and in data set [5] was less than 0.1 µM each time. Moreover, the concentration for half-maximal inhibition (IC50) in data set [6] and in data set [7] was less than 0.1 µM throughout. The AC50 in data set [3] (RT-qPCR) and in data set [4] (RT-qPCR) was less than 0.1 µM throughout.
With `CN(C)C1CCN(c2ccc3nc(-c4cc5cn(C)nc5cc4O)ccc3n2)C1` (centres unmarked) [Compound 129], the “Effect of Exemplary Compounds” value in data set [1] is “B (B represents 100-1000 nM)”. Besides, the IC50 in data set [2], in data set [3] (setting [8]), in data set [3] (setting [9]), in data set [4] (setting [10]), in data set [4] (setting [11]) and in data set [5] was 0.1 to 1 µM in each case. For the same compound, the half-inhibitory concentration (IC50) in data set [6] is 0.1 to 1 µM; in data set [7], less than 0.1 µM. The AC50 in data set [3] (RT-qPCR) and in data set [4] (RT-qPCR) was 0.1 to 1 µM throughout.
